No end group written: not given here.

The subject of one test is protein kinase C. Put plainly: Detection of small amounts of protein kinase C, agarose gel. The note with it: 30 minutes at room temperature, UV light. It counts as biochemical. The procedure: Fifteen microliters of Promega Peptide 5 (SEQ ID NO:5) were incubated in protein kinase C reaction buffer (20 mM HEPES (pH 7.4), 1.3 mM CaCl2, 1 mM DTT, 10 mM MgCl2, 200 μg/mL phosphatidyl serine, 15 mM ATP), and 1 μg Protein Kinase C for 2 hours at room temperature in a final volume of 40 μl. The reaction was stopped by heating the reaction solution to 95° C. for ten minutes.
Five microliters of Promega Peptide 5 (SEQ ID NO:5) and 6 (SEQ ID NO:6) or 2.5 μl of Promega Peptide 4 (SEQ ID NO:4) were incubated with a solution containing 18 μl protein kinase C reaction buffer (described in Example 13) and decreasing amounts of protein kinase C, containing between 60 ng and 60 picograms (pg), for 30 minutes at room temperature. Reactions were stopped by heating the reaction mixtures to 95° C. for 10 minutes.
Referring to FIG. 11, the detection of phosphorylated peptide was observed under UV light, and detection limits noted. Six hundred picograms of protein kinase C could be detected by Promega Peptide 4 (SEQ ID NO:4), 3ng by Promega Protein 5 (SEQ ID NO:5), and 3 ng by Promega Protein 6 (SEQ ID NO:6).

The target of a further test is T1, Modified Trypsin (Sus scrofa, UniProt P00761).
T1 construct: purchased Promega Corp., Madison, Wis
T1 sequence (P00761 9-231): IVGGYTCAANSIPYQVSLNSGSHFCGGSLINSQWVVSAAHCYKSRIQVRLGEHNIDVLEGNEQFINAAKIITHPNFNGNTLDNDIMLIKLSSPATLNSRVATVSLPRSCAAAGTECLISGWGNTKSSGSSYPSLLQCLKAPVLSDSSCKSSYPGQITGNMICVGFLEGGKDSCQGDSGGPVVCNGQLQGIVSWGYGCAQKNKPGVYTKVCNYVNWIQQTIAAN
Put plainly: Assay of pure proteases using modified peptides, agarose gel. The format is biochemical. The note with it: 90 minutes at 37° C., 0.1 to 0.001 μg protease. As to the method:
(§1) The proteases Modified Trypsin [sequencing grade] (Promega Corp., Madison, Wis.) and Endoprotease Lys C [sequencing grade] were dissolved in A buffer (50 mM ammonium bicarbonate, pH 7.8). These stocks were diluted with A buffer to produce stocks containing […] protease per 4 μl of liquid. Independent incubations of 4 μl of each of the different protease concentrations were performed with Promega Peptides 5 (SEQ ID NO:5), 6 (SEQ ID NO:6), 7 (SEQ ID NO:7) (5 μl of the stocks described above) in a 20 μl reaction mixture containing: 5 μl peptide; 4 μl protease; and 11 μl A buffer.
(§2) After 90 minutes at 37° C., the samples were loaded into a 0.8% agarose gel made in 20 mM Tris, pH 8.0. The samples were electrophoresed at 150 V. When the control peptide sample had migrated about 0.5 inch from the loading well, the gels were photographed on a transilluminator as described above.
(§3) Reference is made to FIG. 13, which is a photograph of the agarose gel used to analyze the peptide species produced in the digestion of Promega Peptide 6 (SEQ ID NO:6) by modified trypsin and Endoprotease Lys C. The gel was photographed under UV light as described in Example 1 and the gel is oriented such that the end of the gel which was oriented towards the negative electrode is towards the top of the photograph. The lanes are numbered from left to right. […]

Another test concerns the target T2, Endoprotease Lys C (Lysobacter enzymogenes, UniProt Q7M135).
T2 construct: purchased Promega Corp., Madison, Wis
Described as above. The format is biochemical. The following applies: 90 minutes at 37° C., 0.1 to 0.001 μg protease. The procedure: as §1, §2, §3

Test [1] has as its system Brevibacterium albidum culture supernate. Put plainly: Assays of proteases in crude media samples. It counts as biochemical. The following applies: 90 minutes at 37° C. The procedure:
(§4) Samples of culture supernate from stationary phase cultures of Thermus aquaticus (T. aquaticus) and Brevibacterium albidum (B. albidum) were made by centrifugation of a stationary phase culture at 12,000×g for 2 minutes and transfer of the supernate to fresh tubes. Diluted stocks of Promega Peptides 3 (SEQ ID NO:3), 5 (SEQ ID NO:5) and 6 (SEQ ID NO:6) were made by dilution of the original stocks of these peptides with an equal volume of 50 mM ammonium bicarbonate, pH 7.8. In three independent tubes per peptide, 10 μL of these diluted stocks were incubated with either 10 μL water, 10 μL Thermus supernate, or 10 μL Brevibacterium supernate. The incubations were performed for 90 minutes at 37° C. The samples were then loaded in a 0.9% agarose gel made with 20 mM Tris-Cl pH 8.0. The gel was then electrophoresed at 120 V for 30 minutes, and was photographed under UV light on a transilluminator as described above.
(§5) Reference is made to FIG. 15, which is a photograph of the agarose gel used to analyze the peptide species produced in the digestion of Promega Peptides 3 (SEQ ID NO:3), 5 (SEQ ID NO:5), and 6 (SEQ ID NO:6) by supernates of cultures of T. aquaticus and B, albidum. The gel was photographed under UV light as described in Example 1 and the gel is oriented such that the end of the gel which was oriented towards the negative electrode is towards the top of the photograph.

The test system of test [2] is Thermus aquaticus culture supernate. The experiment in a line: Assays of proteases in crude media samples. The format is biochemical. The following applies: 90 minutes at 37° C. The procedure: as §4, §5
The test system of another test is alkaline phosphatase. The note with it: peptide phosphorylated by protein kinase C; pH 9.2, 37° C. for 45 minutes.

T2 sequence (Q7M135 whole entry): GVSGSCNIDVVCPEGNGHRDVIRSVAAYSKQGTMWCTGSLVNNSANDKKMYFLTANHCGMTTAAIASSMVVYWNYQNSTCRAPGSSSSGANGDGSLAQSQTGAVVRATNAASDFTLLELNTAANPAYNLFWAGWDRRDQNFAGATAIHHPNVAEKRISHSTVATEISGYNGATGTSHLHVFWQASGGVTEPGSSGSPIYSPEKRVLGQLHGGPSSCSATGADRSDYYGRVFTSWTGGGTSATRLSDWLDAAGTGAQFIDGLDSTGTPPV
Description for alkaline phosphatase: Promega Peptide 6 (SEQ ID NO:6) was phosphorylated to provide a substrate for alkaline phosphatase in the following manner: 40 μl Promega Peptide 6 (SEQ ID NO:6) were incubated in a solution containing 20 mM HEPES (pH 7.4), 1.67 mM CaCl2, 1 mM dithiothreotol, 10 mM MgCl2, 100 μg/mL phosphatidylserine, 2 mM ATP, and 50 ng protein kinase C in a final volume of 100 μl at 37° C. for 1.5 hours. The reaction was stopped by incubating the mixture at 95° C. for 10 minutes.
After phosphorylation, 0.1M Tris (pH 9.5) was added to a final pH of 9.2. Fifteen microliters of this solution were mixed with between 0.08 to 200 pmoles of alkaline phosphatase in a final volume of 20 μl and incubated at 37° C. for 45 minutes. The reaction was stopped by freezing the mixtures in a dry ice/ethanol bath. Glycerol was added to a final concentration of 4%, and the samples were run on a 0.8% agarose gel at 75 V for 20 minutes.

As for “Promega Peptide 6: Lissamine Rhodamine-tagged peptide *-P-L-S-R-T-L-S-V-A-A-K-K (SEQ ID NO:6) ({Lissamine Rhodamine}-PLSRTLSVAAKK)”, the “amount of protein kinase C that could be detected” value in the test with protein kinase C is reported as 3 ng. Moreover, the “digestion by Modified Trypsin” value with Modified Trypsin is given as “fluorescent species with mobilities altered”. In the test with Endoprotease Lys C, the “digestion by Endoprotease Lys C” value is on record as “fluorescent species with mobilities altered”. Also, the “proteolysis by B. albidum supernate” value in test [1] is “proteolytic cleavage of the peptide had occurred”. The “proteolysis by T. aquaticus supernate” value in test [2] is given as “proteolytic cleavage of the peptide had occurred”. Besides, the “amount of alkaline phosphatase at which dephosphorylation of the phosphorylated peptide could be seen” value with alkaline phosphatase is listed as 60 ng.

The values are drawn from patent publication US5580747A, “Non-radioactive enzyme assay” (Promega Corporation, priority 1994, dated 1996).
